In patent US7495114B2, “Cytotoxic agents containing novel potent taxanes and their therapeutic use” (Immunogen Inc., priority 2002, dated 2009):

Key:
Assay type in all cases: cell-based, human
[1] = test system: A431 cells; assay: In vitro cytotoxicity of taxanes, plating efficiency (clonogenic) assay, A431; conditions: read-out: IC50 value towards A431 cells
Excerpt: (§1) The sulfide, disulfide, and sulfhydryl containing taxane drugs of the invention can be evaluated for their ability to suppress proliferation of various human tumor cell lines in vitro. Four adherent cell lines, A431 (human epidermoid carcinoma), SKBR3 (human breast tumor), A549 (human lung carcinoma) and MCF-7 (human breast tumor), and the non-adherent cell line, Namalwa (Burkitt's lymphoma) are used for the assessment of cytotoxicity of these compounds. Cells are exposed to the compounds for 72 hours and the surviving fractions of cells are measured in direct assays.
A431, A549 and MCF-7 cells were plated at different densities in 6-well tissue-culture plates in DMEM medium supplemented with 10% fetal calf serum. Taxane 2′, at varying concentrations, was added and the cells were maintained in a humidified atmosphere at 37° C. and 6% CO2 until colonies of approximately 20 cells or more were formed (6 to 10 days). Control plates contained no taxane. The cells were then fixed with formaldehyde, stained with crystal violet, and counted under a low-magnification microscope. Plating efficiencies were then determined from the colony numbers and surviving fractions of cells were calculated as the ratio of the plating efficiency of the treated sample and the plating efficiency of the control.

[2] = test system: MCF-7 cells; assay: In vitro cytotoxicity of taxanes, plating efficiency (clonogenic) assay, MCF-7; conditions: read-out: IC50 value towards MCF-7 cells
Excerpt: (§2) The new taxanes and the disulfide containing taxane drugs of the invention can be evaluated for their ability to suppress proliferation of human tumor cell lines in vitro.
as §1
(§3) The cytotoxic potency of taxane 3′ was similarly confirmed. […] The cells were then fixed with formaldehyde, stained with crystal violet, and counted under a low-magnification microscope. Plating efficiencies were then determined from the colony numbers and surviving fractions of cells were calculated as the ratio of the plating efficiency of the treated sample and the plating efficiency of the control.
(§4) The new taxoids and the disulfide containing taxane drugs of the invention were evaluated for their ability to suppress proliferation of human tumor cell lines in vitro. […]
(§5) 18 and 37 was measured as follows. […]

[3] = test system: A549 cells; assay: In vitro cytotoxicity of taxanes, plating efficiency (clonogenic) assay, A549; conditions: read-out: IC50 value towards A549 cells
Excerpt: as §2, §1, §3, §4, §5

Compound	IC50 [1]	IC50 [2]	IC50 [3]
3′-dephenyl-3′-(isobutenyl)-7-(methyldisulfonyl-propanoyl)-docetaxel [Taxane 2′]	0.8 nM	–	–
COc1ccc(OC)c(C(=O)OC2C3C4(OC(C)=O)COC4CC(OC(=O)CCSSC)C3(C)C(=O)C(O)C3=C(C)C(OC(=O)C(O)C(C=C(C)C)NC(=O)OC(C)(C)C)CC2(O)C3(C)C)c1 (stereo not drawn) [Taxane 3′, 3′-dephenyl-3′-(isobutenyl)-2-debenzoyl-2-(2,5-dimethoxybenzoyl)-7-(methyldisulfonyl-propanoyl)-docetaxel]	–	0.063 nM	0.18 nM
